In the NIST ThermoML archive (doi:10.1021/je030136n):

How the values were obtained:
[1] = Liquid, Pulse-echo method
[2] = xn = mol fraction of the nth substance listed; conditions: Liquid, Pulse-echo method, x1 = 1

CCCO [propan-1-ol]
[1]
Conditions	speed of sound [m/s]
293.12 K, 15200 kPa	1308.5
293.16 K, 121580 kPa	1699.1
293.17 K, 111450 kPa	1669.9
293.18 K, 101320 kPa	1639.5
293.19 K, 100 kPa	1223
293.2 K, 75990 kPa	1557.2
293.2 K, 91190 kPa	1607.6
293.21 K, 45590 kPa	1444.2
293.21 K, 60790 kPa	1502.8
293.22 K, 30400 kPa	1379.9
298.11 K, 15200 kPa	1292.9
298.12 K, 100 kPa	1205.9
298.14 K, 45590 kPa	1430.7
298.14 K, 60790 kPa	1490
298.14 K, 75990 kPa	1544.9
298.14 K, 91190 kPa	1595.8
298.14 K, 101320 kPa	1628
298.14 K, 111450 kPa	1658.8
298.14 K, 121580 kPa	1688.2
298.15 K, 30400 kPa	1365.6
303.12 K, 100 kPa	1188.7
303.13 K, 45590 kPa	1417
303.14 K, 15200 kPa	1277.3
303.15 K, 75990 kPa	1532.5
303.17 K, 91190 kPa	1584
303.17 K, 101320 kPa	1616.5
303.18 K, 121580 kPa	1677.4
303.19 K, 111450 kPa	1647.5
303.2 K, 60790 kPa	1477
303.24 K, 30400 kPa	1350.9
308.11 K, 121580 kPa	1667
308.12 K, 75990 kPa	1520.4
308.13 K, 30400 kPa	1336.8
308.13 K, 45590 kPa	1403.7
308.13 K, 60790 kPa	1464.5
308.16 K, 111450 kPa	1636.7
308.19 K, 101320 kPa	1605.1
308.2 K, 100 kPa	1171.4
308.2 K, 15200 kPa	1263.6
308.2 K, 91190 kPa	1572.4
313.15 K, 91190 kPa	1561.1
313.15 K, 101320 kPa	1594.1
313.16 K, 15200 kPa	1248.7
313.16 K, 30400 kPa	1322.6
313.16 K, 45590 kPa	1390.4
313.16 K, 75990 kPa	1508.5
313.17 K, 100 kPa	1154.5
313.17 K, 60790 kPa	1451.8
313.17 K, 121580 kPa	1656.2
313.22 K, 111450 kPa	1625.8
318.11 K, 101320 kPa	1583.3
318.12 K, 60790 kPa	1439.6
318.12 K, 75990 kPa	1496.8
318.12 K, 91190 kPa	1549.9
318.14 K, 45590 kPa	1377.4
318.16 K, 30400 kPa	1308.7
318.17 K, 111450 kPa	1615.3
318.17 K, 121580 kPa	1646
318.2 K, 100 kPa	1137.5

CCCO [propan-1-ol] + CCCCCCC
[2]
Conditions	speed of sound [m/s]
293.12 K, 15200 kPa	1308.5
293.16 K, 121580 kPa	1699.1
293.17 K, 111450 kPa	1669.9
293.18 K, 101320 kPa	1639.5
293.19 K, 100 kPa	1223
293.2 K, 75990 kPa	1557.2
293.2 K, 91190 kPa	1607.6
293.21 K, 45590 kPa	1444.2
293.21 K, 60790 kPa	1502.8
293.22 K, 30400 kPa	1379.9
298.11 K, 15200 kPa	1292.9
298.12 K, 100 kPa	1205.9
298.14 K, 45590 kPa	1430.7
298.14 K, 60790 kPa	1490
298.14 K, 75990 kPa	1544.9
298.14 K, 91190 kPa	1595.8
298.14 K, 101320 kPa	1628
298.14 K, 111450 kPa	1658.8
298.14 K, 121580 kPa	1688.2
298.15 K, 30400 kPa	1365.6
303.12 K, 100 kPa	1188.7
303.13 K, 45590 kPa	1417
303.14 K, 15200 kPa	1277.3
303.15 K, 75990 kPa	1532.5
303.17 K, 91190 kPa	1584
303.17 K, 101320 kPa	1616.5
303.18 K, 121580 kPa	1677.4
303.19 K, 111450 kPa	1647.5
303.2 K, 60790 kPa	1477
303.24 K, 30400 kPa	1350.9
308.11 K, 121580 kPa	1667
308.12 K, 75990 kPa	1520.4
308.13 K, 30400 kPa	1336.8
308.13 K, 45590 kPa	1403.7
308.13 K, 60790 kPa	1464.5
308.16 K, 111450 kPa	1636.7
308.19 K, 101320 kPa	1605.1
308.2 K, 100 kPa	1171.4
308.2 K, 15200 kPa	1263.6
308.2 K, 91190 kPa	1572.4
313.15 K, 91190 kPa	1561.1
313.15 K, 101320 kPa	1594.1
313.16 K, 15200 kPa	1248.7
313.16 K, 30400 kPa	1322.6
313.16 K, 45590 kPa	1390.4
313.16 K, 75990 kPa	1508.5
313.17 K, 100 kPa	1154.5
313.17 K, 60790 kPa	1451.8
313.17 K, 121580 kPa	1656.2
313.22 K, 111450 kPa	1625.8
318.11 K, 101320 kPa	1583.3
318.12 K, 60790 kPa	1439.6
318.12 K, 75990 kPa	1496.8
318.12 K, 91190 kPa	1549.9
318.14 K, 45590 kPa	1377.4
318.16 K, 30400 kPa	1308.7
318.17 K, 111450 kPa	1615.3
318.17 K, 121580 kPa	1646
318.2 K, 100 kPa	1137.5

CCCCCCC [heptane]
[1]
Conditions	speed of sound [m/s]
293.1 K, 111450 kPa	1674.3
293.15 K, 100 kPa	1151.7
293.16 K, 121580 kPa	1707.1
293.18 K, 30400 kPa	1341.5
293.19 K, 45590 kPa	1416.6
293.2 K, 15200 kPa	1256.3
293.2 K, 60790 kPa	1484.5
293.2 K, 75990 kPa	1546.5
293.2 K, 91190 kPa	1603.7
293.2 K, 101320 kPa	1639.7
298.11 K, 75990 kPa	1531.6
298.13 K, 111450 kPa	1660.5
298.14 K, 121580 kPa	1692.4
298.15 K, 91190 kPa	1589.4
298.16 K, 100 kPa	1129.9
298.16 K, 101320 kPa	1625.7
298.16 K, 111450 kPa	1660.4
298.18 K, 45590 kPa	1400.1
298.19 K, 60790 kPa	1468.7
303.06 K, 100 kPa	1108.9
303.07 K, 45590 kPa	1384.4
303.1 K, 101320 kPa	1612.6
303.1 K, 121580 kPa	1681.2
303.13 K, 30400 kPa	1307
303.15 K, 111450 kPa	1647.6
303.17 K, 15200 kPa	1218.6
303.17 K, 75990 kPa	1517.2
303.18 K, 60790 kPa	1453.7
303.18 K, 91190 kPa	1575.7
308.07 K, 30400 kPa	1290.3
308.07 K, 45590 kPa	1368.7
308.08 K, 100 kPa	1087.4
308.08 K, 15200 kPa	1200.4
308.11 K, 91190 kPa	1562.4
308.12 K, 60790 kPa	1439
308.12 K, 75990 kPa	1503.2
308.17 K, 121580 kPa	1668.6
308.21 K, 111450 kPa	1634.6
308.24 K, 101320 kPa	1599.1
313.1 K, 100 kPa	1066.1
313.1 K, 15200 kPa	1182
313.1 K, 75990 kPa	1489.2
313.12 K, 30400 kPa	1273.3
313.12 K, 45590 kPa	1353
313.12 K, 60790 kPa	1424.3
313.13 K, 91190 kPa	1549
313.13 K, 121580 kPa	1656.4
313.2 K, 111450 kPa	1622
313.21 K, 101320 kPa	1586.2
318.09 K, 75990 kPa	1475.5
318.15 K, 91190 kPa	1535.7
318.17 K, 45590 kPa	1337.4
318.17 K, 60790 kPa	1409.6
318.17 K, 121580 kPa	1644.3
318.18 K, 100 kPa	1044.5
318.18 K, 15200 kPa	1163.4
318.18 K, 30400 kPa	1256.5
318.18 K, 101320 kPa	1573.6
318.18 K, 111450 kPa	1609.8
